Test [1] concerns S. aureus (Oxford). Kind of test: In vitro antibacterial activity, M.I.C. against S. aureus. To be noted: Staphylococcus aureus. In kind it is cell-based.
In test [2] the test system is E. coli (NCTC 10418). Kind of test: In vitro antibacterial activity, M.I.C. against E. coli. The test is classed as cell-based. As to conditions: Escherichia coli, NCTC10418.

Converted amounts (≈) assume the structure as drawn.

Turning to `CO/N=C(\C(=O)N[C@@H]1C(=O)N2C(C(=O)O)=C(C3CCC(=O)O3)CS[C@H]12)c1csc(N)n1` (mixture of isomers) [Example 3, Sodium (6R,7R)-7-[2-(2-Aminothiazol-4-yl)-2-(Z)-methoxyiminoacetamido]-3-[(5RS)-2-oxotetrahydrofuran-5-yl]ceph-3-em-4-carboxylate], the minimal inhibitory concentration (MIC) in test [1] was 1 µg/mL; in test [2] it was less than 0.03 µg/mL.
The corresponding values for `Nc1nc(/C(=N/OCC(=O)O)C(=O)N[C@@H]2C(=O)N3C(C(=O)O)=C(C4CCC(=O)O4)CS[C@H]23)cs1` (stereo partly shown) [Example 10] are 8 µg/mL (≈ 15.6 µM) and 0.12 µg/mL (≈ 0.235 µM).
As for `CO/N=C(\C(=O)N[C@@H]1C(=O)N2C(C(=O)[O-])=C(C3CCOC3=O)CS[C@H]12)c1csc(N)n1.[Na+]` (mixture of isomers) [Example 15, Sodium (6R,7R)-7-[2-(2-aminothiazol-4-yl)-2-(Z)-methoxyiminoacetamido]-3-[(3RS)-2-oxotetrahydrofuran-3-yl]ceph-3-em-4-carboxylate], the results for the MIC in test [1] and in test [2] were 4 µg/mL and 0.25 µg/mL, respectively.
The corresponding values for `CO/N=C(\C(=O)N[C@@H]1C(=O)N2C(C(=O)O)=C(C3COC(=O)C3)CS[C@H]12)c1csc(N)n1` (stereo partly shown) [Example 8] are 4 µg/mL (≈ 8.56 µM) and 32 µg/mL (≈ 68.5 µM).
Consider `Nc1nc(/C(=N/O)C(=O)N[C@@H]2C(=O)N3C(C(=O)O)=C(C4CCC(=O)O4)CS[C@H]23)cs1` (mixture of isomers) [Example 5, (6R,7R)-7-[2-(2-Aminothiazol-4-yl)-2-(Z)-hydroxyiminoacetamido]-3-[(5RS)-2-oxotetrahydrofuran-5-yl)ceph-3-em-4-carboxylic acid], for which the MIC in test [1] was 0.25 µg/mL; in test [2] it was less than 0.03 µg/mL.

These data come from patent US5246926A, “Cephalosporin derivatives” (Beecham Group p.l.c., priority 1989, dated 1993).
